{"source": "patent US20250381307A1", "about": "“RETRO-AAV AND USE IN TREATING NEURODEGENERATIVE DISEASES” (priority 2023, published 2025)", "target": "T1, rM3Ds (Rattus norvegicus, UniProt P08483, A177S/A238G/A489L/DEL261-437/DEL441-478/E258S/I253V/I483M/INS256[…]/K178L/K182A/K255R/K484R/K486H/L173F/L482A/M480V/R171S/R176Q/R179M/S481M/T174R/T181R/T257A/Y148C)", "T1 construct": "rM3Ds; 2A-EYFP (C); host or cells: AAV8R12-transduced striatal D1-MSNs of mice and cynomolgus macaques (in vivo and acute slices)", "T1 sequence (P08483 other isoform, or with tags, fused parts or gaps with the stated changes)": "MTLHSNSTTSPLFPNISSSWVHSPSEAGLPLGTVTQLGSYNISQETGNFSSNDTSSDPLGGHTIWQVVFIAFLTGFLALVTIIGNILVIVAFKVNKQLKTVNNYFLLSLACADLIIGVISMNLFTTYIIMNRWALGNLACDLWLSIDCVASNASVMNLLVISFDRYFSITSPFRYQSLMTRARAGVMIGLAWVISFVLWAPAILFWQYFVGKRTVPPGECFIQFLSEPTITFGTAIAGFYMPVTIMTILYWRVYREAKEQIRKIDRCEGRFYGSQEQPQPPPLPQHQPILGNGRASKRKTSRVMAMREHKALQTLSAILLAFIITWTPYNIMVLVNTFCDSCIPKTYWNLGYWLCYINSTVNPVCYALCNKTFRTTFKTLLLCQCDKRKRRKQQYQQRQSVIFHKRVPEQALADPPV", "assay": "Slice whole-cell recordings of rM3Ds-transduced MSNs", "assay_type": "cell-based, mice", "conditions": "AAV8R12-G88P7-rM3Ds-2A-EYFP", "text": "Mice from different groups were anesthetized with […] isoflurane, and then decapitated. The brain was quickly extracted and placed in ice-cold N-methyl-D-glucamine (NMDG) cutting solution containing (in mM): 92 NMDG, 2.5 KCl, 25 NaHCO3, 1.25 NaH2PO4, 4.5 D-Glucose, 20 HEPES, 5 L-ascorbic acid, 3 Na-pyruvate, 2 Thiourea, 10 MgSO4, 0.5 CaCl2). The pH was adjusted to 7.2±0.1 using HCl and the osmolarity was adjusted to 305±5 mosmol/L using NMDG. The solution was bubbled with 95% O2/5% CO2 prior to use. Coronal striatum slices were cut in 250-[…]m thickness with a vibratome slicer (Leica, VT1200 S), and then incubated in artificial cerebrospinal fluid (aCSF) saturated with 95% O2/5% CO2 for at least 45 min at 37° C. before recording. The aCSF contains (in mM) 125 NaCl, 1.25 KCl, 25 NaHCO3, 1.25 KH2PO4, 25 D-Glucose, 2 CaCl2) and 1 MgCl2, supplemented with 2 mM Na-pyruvate, 3 mM Myo-inositol and 0.4 mM L-ascorbic acid.\nThe acute striatum slice was transferred to the recording chamber with a constant perfusion of oxygenized aCSF at the rate of 3 ml/min. Neurons were visualized using an upright microscope (Olympus, BX-51) with a 40×water immersion objective at room temperature (˜25° C.). […] Neurons were quickly visualized under fluorescence microscope and then patch clamp were achieved under infrared light illumination and CCD camera. […]", "data": [{"smiles": "C[N+]1([O-])CCN(C2=Nc3cc(Cl)ccc3Nc3ccccc32)CC1", "note": "[CNO, clozapine N-oxide]", "values": [{"measurement": "excitability of D1-MSNs in parkinsonian mice", "setting": "6-OHDA mice, not with AAV8R12-G88P7-EYFP", "value": "increased excitability"}, {"measurement": "excitability of labeled striatal MSNs", "setting": "CNO 10 μM, no effect on basal firing rate or resting membrane potential", "value": "enhancement in the excitability"}]}]}
